Measured values published in patent US12187773B2, “Modified GIP peptide analogues” (Antag Therapeutics ApS, priority 2018, dated 2025).
Read-outs that look alike come from different tables or passages of the source. *1 amine or outer side, *2 acyl side, *3 side chain or, on linkers, in order; H or OH if unused. Where a SMILES comes first, the peptide text is derived from it. Side-chain parts run from the residue outwards. The star is where a group is joined. C16 diacid = O=C(O)CCCCCCCCCCCCCCC(=O)*; γGlu = O=C(O)[C@H](CCC(=O)[*:2])N[*:1]; AEEA = NCCOCCOCC(=O)O

Key:
[1] = molecular target: T1, human GIP receptor (Homo sapiens, UniProt P48546); assay: cAMP agonism (CisBio cAMP Dynamic 2 HTRF assay); format: cell-based; conditions: for Emax: HEK293, read-out: cAMP agonism, % Efficacy, Table 1C, HEK-293 cells
T1 sequence (P48546 22-466): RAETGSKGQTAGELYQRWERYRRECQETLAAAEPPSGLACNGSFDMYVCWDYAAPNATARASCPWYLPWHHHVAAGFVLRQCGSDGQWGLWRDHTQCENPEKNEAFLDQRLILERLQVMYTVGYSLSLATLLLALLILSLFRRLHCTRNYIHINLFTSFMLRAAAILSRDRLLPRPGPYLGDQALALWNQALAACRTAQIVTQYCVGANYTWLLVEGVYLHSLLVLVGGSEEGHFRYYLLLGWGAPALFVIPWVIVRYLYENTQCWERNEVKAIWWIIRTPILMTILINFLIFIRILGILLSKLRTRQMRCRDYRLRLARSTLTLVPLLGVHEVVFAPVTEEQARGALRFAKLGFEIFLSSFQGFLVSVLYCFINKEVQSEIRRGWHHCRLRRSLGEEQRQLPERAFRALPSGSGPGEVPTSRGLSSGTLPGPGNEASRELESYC
Procedure: To test for agonistic properties at the GIP receptor, compounds were diluted and added to cells as described above and incubated for 30 min at 37° C. The resulting increase in intracellular cAMP was determined using the CisBio cAMP Dynamic 2 HTRF Assay Kit as described above.

[2] = molecular target: T2, GLP2 receptor (GLP2R) (Homo sapiens, UniProt O95838); assay: cAMP assay - selectivity, antagonism at GLP2 receptor; format: cell-based; conditions: Table 3B; COS-7 cells; agonist GLP2
T2 construct: expressed in transfected cells; host or cells: COS-7 (transient)
T2 sequence (O95838 1-553): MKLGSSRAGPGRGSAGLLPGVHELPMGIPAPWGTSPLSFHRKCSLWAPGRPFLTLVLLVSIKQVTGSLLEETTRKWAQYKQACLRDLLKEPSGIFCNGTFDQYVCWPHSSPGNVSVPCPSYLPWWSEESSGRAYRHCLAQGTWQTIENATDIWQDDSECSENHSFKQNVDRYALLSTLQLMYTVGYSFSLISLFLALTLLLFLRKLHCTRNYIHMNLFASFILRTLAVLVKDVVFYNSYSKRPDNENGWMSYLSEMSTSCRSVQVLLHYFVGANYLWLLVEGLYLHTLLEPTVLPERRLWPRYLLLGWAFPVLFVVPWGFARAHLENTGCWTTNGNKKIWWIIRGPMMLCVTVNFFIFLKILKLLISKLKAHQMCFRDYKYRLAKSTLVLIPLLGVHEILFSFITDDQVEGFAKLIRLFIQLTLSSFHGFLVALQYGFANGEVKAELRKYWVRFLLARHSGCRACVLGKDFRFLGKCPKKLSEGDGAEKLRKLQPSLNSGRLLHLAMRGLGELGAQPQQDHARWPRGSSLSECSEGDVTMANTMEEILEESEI
Procedure: (§1) Transient transfected COS-7 cells expressing the either of the GLP1 receptor (GLP1R), GLP2 receptor (GLP2R), glucagon receptor (GcgR) or secretin receptor (SCTR) were seeded in white 96-well plates with a density of 3.5*10^4/well. The day after, the cells were washed twice with Hepes buffered saline (HBS) buffer and incubated with HBS and 1 mM 3-isobutyl-1-methylxanthine (IBMX) for 30 min at 37° C. To test for agonistic properties, ligands were added and incubated for 30 min at 37° C. In order to test for antagonistic properties, the cells were preincubated with the antagonists for 10 min prior to the addition the natural agonist for the expressed receptor (GLP1 for GLP1R expressing cells, GLP2 for GLP2R expressing cells, glucagon for the GcgR and secretin for the SCTR) and subsequent incubated for 20 additional min. […] The HitHunter™ cAMP XS assay (DiscoveRx) was carried out according to the manufacturer's instructions.

[3] = molecular target: T3, GLP1 receptor (GLP1R) (Homo sapiens, UniProt P43220); assay: cAMP assay - selectivity, antagonism at GLP1 receptor; format: cell-based; conditions: Table 3A; for GLP-1R, Antagonism, index: selectivity index versus GIPR
T3 construct: expressed in transfected cells; host or cells: COS-7 (transient)
T3 sequence (P43220 24-463, species assumed): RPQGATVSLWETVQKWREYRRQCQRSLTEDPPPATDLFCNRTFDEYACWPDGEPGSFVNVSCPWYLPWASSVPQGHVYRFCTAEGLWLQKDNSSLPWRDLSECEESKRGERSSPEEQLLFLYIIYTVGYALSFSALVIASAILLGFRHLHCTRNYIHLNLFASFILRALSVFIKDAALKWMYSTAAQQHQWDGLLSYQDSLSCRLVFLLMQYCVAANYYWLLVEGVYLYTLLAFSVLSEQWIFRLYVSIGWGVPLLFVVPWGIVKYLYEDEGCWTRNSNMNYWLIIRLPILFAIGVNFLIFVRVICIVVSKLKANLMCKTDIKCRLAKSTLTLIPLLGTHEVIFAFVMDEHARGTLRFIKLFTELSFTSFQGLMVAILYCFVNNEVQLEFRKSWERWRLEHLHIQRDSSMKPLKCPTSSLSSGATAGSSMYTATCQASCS
Procedure: as §1

[4] = molecular target: T1, human GIP receptor; assay: cAMP antagonism (CisBio cAMP Dynamic 2 HTRF assay); format: cell-based; design: pCMV-Script vector
Summary of the method: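 Four-parameter fits of cAMP dose-response gave pIC50. cAMP fall was quantified by HTRF competition, ratio 665/620 nm after 60 min at room temperature, against a cAMP standard curve.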

[5] = molecular target: T4, secretin receptor (SCTR) (Homo sapiens, UniProt P47872); assay: cAMP assay - selectivity, antagonism at secretin receptor; format: cell-based; conditions: Table 3B; COS-7 cells; agonist secretin
T4 construct: expressed in transfected cells; host or cells: COS-7 (transient)
T4 sequence (P47872 23-440, species assumed): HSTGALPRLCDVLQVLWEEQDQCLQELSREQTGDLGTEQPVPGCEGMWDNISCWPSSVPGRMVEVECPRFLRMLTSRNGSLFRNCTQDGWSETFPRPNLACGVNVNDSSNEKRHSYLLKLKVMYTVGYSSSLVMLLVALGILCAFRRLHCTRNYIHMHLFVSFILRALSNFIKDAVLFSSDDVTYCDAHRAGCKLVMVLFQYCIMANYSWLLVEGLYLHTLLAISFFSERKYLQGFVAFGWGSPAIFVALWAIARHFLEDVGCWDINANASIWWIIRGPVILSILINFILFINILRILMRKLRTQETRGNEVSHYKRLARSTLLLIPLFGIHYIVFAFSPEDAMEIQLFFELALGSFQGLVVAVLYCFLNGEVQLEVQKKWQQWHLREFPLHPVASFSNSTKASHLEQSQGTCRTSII
Procedure: as §1

[6] = molecular target: T1, human GIP receptor; assay: cAMP accumulation, antagonism (DiscoveRx HitHunter cAMP XS assay); format: cell-based; design: host or cells: COS-7 (transient, calcium phosphate; pCMV-Script vector)
Summary of the method: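 Transiently transfected COS-7 cells expressing human GIP receptor, pretreated with 1 mM IBMX in HBS 30 min at 37 °C. Agonism: ligand 30 min at 37 °C; antagonism: 10 min antagonist preincubation, then GIP at 50-80% maximal response for 20 min. cAMP measured by HitHunter cAMP XS.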

[7] = molecular target: T5, glucagon receptor (GcgR) (Homo sapiens, UniProt P47871); assay: cAMP assay - selectivity, antagonism at glucagon receptor; format: cell-based; conditions: Table 3A; COS-7 cells; agonist glucagon at 50-80% of maximal cAMP
T5 construct: expressed in transfected cells; host or cells: COS-7 (transient)
T5 sequence (P47871 26-477, species assumed): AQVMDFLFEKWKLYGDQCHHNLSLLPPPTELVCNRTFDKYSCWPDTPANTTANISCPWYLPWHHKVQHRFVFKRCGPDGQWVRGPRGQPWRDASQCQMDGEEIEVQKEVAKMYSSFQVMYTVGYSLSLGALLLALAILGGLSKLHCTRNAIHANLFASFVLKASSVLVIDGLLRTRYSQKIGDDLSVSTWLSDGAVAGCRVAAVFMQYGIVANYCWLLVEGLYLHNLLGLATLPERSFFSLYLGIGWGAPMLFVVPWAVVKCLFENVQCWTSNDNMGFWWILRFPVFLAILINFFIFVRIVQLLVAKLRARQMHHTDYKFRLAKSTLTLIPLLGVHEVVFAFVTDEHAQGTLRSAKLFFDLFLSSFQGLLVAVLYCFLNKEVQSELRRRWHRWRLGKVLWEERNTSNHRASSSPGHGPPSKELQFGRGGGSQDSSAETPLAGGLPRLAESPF
Procedure: as §1

[8] = molecular target: T1, human GIP receptor; assay: cAMP accumulation, agonism (DiscoveRx HitHunter cAMP XS assay); format: cell-based; design: host or cells: COS-7 (transient, calcium phosphate; pCMV-Script vector)
Summary of the method: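 cAMP accumulation measured by HitHunter cAMP XS in COS-7 cells transiently expressing human GIP receptor, after 30 min in HBS with 1 mM IBMX at 37 °C. Antagonists preincubated 10 min before GIP giving 50-80% of maximum, then 20 min more; agonist mode used 30 min ligand exposure.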

[9] = Elimination half-life (T1/2) estimated in Göttingen minipigs; format: in vivo
Procedure: 2-3 Göttingen minipigs were subcutaneously administered one of the GIP analogues of the present invention (1-10 nmol/kg, total volume 2-6 mL) and blood samples were collected before and up to 432 hours post subcutaneous administration.) from a central venous catheter. The catheter was flushed with saline and heparin between samples. Blood was collected into cold EDTA tubes, centrifuged and plasma was kept at −20° C. pending analyses.
Concentrations of the acylated GIP(3-30)NH2 or GIP(5-30)NH2 analogues in blood samples from Göttingen minipigs were analyzed by RIA. Analogues' immunoreactivity was determined using antiserum Ab95234, Ab95235, Ab95236, a polyclonal in-house antibody raised in rabbits specific for either the mid region of GIP(1-30)NH2 or amidated C-terminus of GIP(3-30)NH2.
In addition to the hormone analysis, blood concentrations of AT374, 380, 382-385, 392-393 were determined by LC/MS performed by Red Glead Discovery AB, Lund, Sweden. The plasma samples were precipitated by addition of 3 parts ethanol followed by thorough mixing. After centrifugation and dilution of the supernatant, the samples were analyzed by LC-MS/MS and compared with a 9-point calibration curve. The calibration curves were prepared in naïve plasma matrix from Göttingen minipigs.

[10] = GIPR, Antagonism, nM, Table 3C, CisBio assay
[11] = Table 1C, CisBio, HEK-293 cells
[12] = cAMP antagonism, nM (IC50), Table 1C, CisBio, HEK-293 cells, agonist GIP1-42 at EC50
[13] = cAMP antagonism, nM (IC50), Table 1B, DiscoveRx, transiently transfected COS-7 cells
[14] = Table 3A/3B, DiscoveRx, COS-7 cells

| SMILES | Emax [1] [%] | GLP-2R, Antagonism [2] | GLP-1R, Antagonism, %inhib ([3]; COS-7 cells) [%] | GLP-1R, Antagonism, index [3] | IC50 [4, 10] [nM] | cAMP antagonism, % inhib [4, 11] [%] | GIPR, Antagonism, % inhib ([4]; Table 3C, CisBio assay) [%] | IC50 [4, 12] [nM] | Secretin R, Antagonism [5] | IC50 [6, 13] [nM] | Glucagon R, Antagonism, nM [7] | GIPR, Antagonism, % inhib [6, 14] [%] | further results |
| --- | --- | --- | --- | --- | --- | --- | --- | --- | --- | --- | --- | --- | --- |
| CC[C@H](C)[C@H](NC(=O)[C@H](CO)NC(=O)[C@H](Cc1ccc(O)cc1)NC(=O)[C@H](CC(=O)O)NC(=O)[C@H](CO)NC(=O)[C@@H](NC(=O)[C@H](Cc1ccccc1)NC(=O)[C@@H](NC(=O)CNC(=O)[C@@H](N)CO)[C@@H](C)O)[C@@H](C)CC)C(=O)N[C@@H](C)C(=O)N[C@@H](CCSC)C(=O)N[C@@H](CC(=O)O)C(=O)N[C@@H](CCCNC(=N)N)C(=O)N[C@H](C(=O)N[C@@H](CCCCNC(=O)COCCOCCNC(=O)COCCOCCNC(=O)CC[C@H](NC(=O)CCCCCCCCCCCCCCC(=O)O)C(=O)O)C(=O)N[C@@H](CCC(N)=O)C(=O)N[C@@H](CCC(N)=O)C(=O)N[C@@H](CC(=O)O)C(=O)N[C@@H](Cc1ccccc1)C(=O)N[C@H](C(=O)N[C@@H](CC(N)=O)C(=O)N[C@@H](Cc1c[nH]c2ccccc12)C(=O)N[C@@H](CC(C)C)C(=O)N[C@@H](CC(C)C)C(=O)N[C@@H](C)C(=O)N[C@@H](CCC(N)=O)C(=O)N[C@@H](CCCNC(=N)N)C(=O)O)C(C)C)[C@@H](C)CC [AT277] (H-SGTFISDYSIAMDRIK([AEEA-AEEA-γGlu-C16 diacid])QQDFVNWLLAQR-OH; N-terminus assumed) | 8 | No antagonism | 68 | 561 | 31.6 | 84 | 84 | 31.6 | No antagonism | 16 | No antagonism |  | Emax ([8]; COS-7, read-out: cAMP agonism, Emax): 9% |
| CC[C@H](C)[C@H](NC(=O)[C@H](CO)NC(=O)[C@H](Cc1ccc(O)cc1)NC(=O)[C@H](CC(=O)O)NC(=O)[C@H](CO)NC(=O)[C@@H](NC(=O)[C@@H](N)Cc1ccccc1)[C@@H](C)CC)C(=O)N[C@@H](C)C(=O)N[C@@H](CCSC)C(=O)N[C@@H](CC(=O)O)C(=O)N[C@@H](CCCCN)C(=O)N[C@H](C(=O)N[C@@H](CCCCNC(=O)CCCCCCCCCCCCCCC(=O)O)C(=O)N[C@@H](CCC(N)=O)C(=O)N[C@@H](CCC(N)=O)C(=O)N[C@@H](CC(=O)O)C(=O)N[C@@H](Cc1ccccc1)C(=O)N[C@H](C(=O)N[C@@H](CC(N)=O)C(=O)N[C@@H](Cc1c[nH]c2ccccc12)C(=O)N[C@@H](CC(C)C)C(=O)N[C@@H](CC(C)C)C(=O)N[C@@H](C)C(=O)N[C@@H](CCC(N)=O)C(=O)N[C@@H](CCCCN)C(N)=O)C(C)C)[C@@H](C)CC [AT353] (H-FISDYSIAMDKIK(C16 diacid)QQDFVNWLLAQK-NH2; N-terminus assumed) | 0 | No antagonism | 43 | 44 | 25.1 | 90 | 90 | 25.1 | No antagonism |  | No antagonism | 100.0 | IC50 ([6]; GIPR, Antagonism, nM, Table 3A/3B, DiscoveRx, COS-7 cells): 9 nM; IC50 ([6]; IC50-value (GIPR antagonism), Examples 1 and 2, values of Tables 1B and 2): 9 nM; cAMP antagonism, % inhib ([6]; Table 2, truncated GIP antagonists): 100.0%; IC50 ([6]; cAMP antagonism, nM (IC50), Table 2, truncated GIP antagonists): 9 nM |
| CC[C@H](C)[C@H](NC(=O)[C@H](CO)NC(=O)[C@H](Cc1ccc(O)cc1)NC(=O)[C@H](CC(=O)O)NC(=O)[C@H](CO)NC(=O)[C@@H](NC(=O)[C@H](Cc1ccccc1)NC(=O)[C@@H](NC(=O)CNC(=O)[C@@H](N)CO)[C@@H](C)O)[C@@H](C)CC)C(=O)N[C@@H](C)C(=O)N[C@@H](CCSC)C(=O)N[C@@H](CC(=O)O)C(=O)N[C@@H](CCCNC(=N)N)C(=O)N[C@H](C(=O)N[C@@H](CCCCNC(=O)CCCCCCCCCCCCCCC(=O)O)C(=O)N[C@@H](CCC(N)=O)C(=O)N[C@@H](CCC(N)=O)C(=O)N[C@@H](CC(=O)O)C(=O)N[C@@H](Cc1ccccc1)C(=O)N[C@H](C(=O)N[C@@H](CC(N)=O)C(=O)N[C@@H](Cc1c[nH]c2ccccc12)C(=O)N[C@@H](CC(C)C)C(=O)N[C@@H](CC(C)C)C(=O)N[C@@H](C)C(=O)N[C@@H](CCC(N)=O)C(=O)N[C@@H](CCCNC(=N)N)C(N)=O)C(C)C)[C@@H](C)CC [AT392] (H-SGTFISDYSIAMDRIK(C16 diacid)QQDFVNWLLAQR-NH2; N-terminus assumed) |  |  |  |  | 68.1 | 96 | 96 | 68.1 |  | 1 |  | 93.0 | cAMP agonism, % Efficacy ([1]; Table 1C, HEK-293 cells): 0%; half-life ([9]; Göttingen, minipig, plasma, subcutaneous, Example 1, read-out: T1/2 (converted)): 6 h; half-life ([9]; sc, Table 1B, species not given, unit h, LC/MS in Göttingen minipig plasma for these IDs, subcutaneous 1-10 nmol/kg, read-out: T½ (converted)): 6 h; GLP-1R, Antagonism, nM ([3]; COS-7 cells, agonist GLP1 at 50-80% of maximal cAMP): No antagonism; cAMP antagonism, % inhib ([6]; Table 1B, DiscoveRx, COS-7 cells, % inhibition of Emax): 93%; cAMP agonism, Emax ([8]; Table 1B, DiscoveRx, COS-7 cells): No Agonism |
